Test results from patent US20070077653A1, “Modulation of cell intrinsic strain to control matrix synthesis, secretion, organization and remodeling” (MEDTRAIN TECHNOLOGIES, LLC, priority 2003, published 2007).

Experiments:
gel matrix = assay: Gel matrix contraction in a culture system; format: cell-based
cell modulus = details: Wu, H. W. et al., Scanning, 1998; cited from earlier work
elastin = assay: Gene expression in BATs by quantitative RT-PCR; format: cell-based, human
Experimental: (§1) Primary human tendon internal fibroblasts (HTIFs) were isolated from discarded human tendon tissue as described previously (Banes et al., J. Ortho Res., 6, 73-82, 1988). HTIFs from passage 2 to 4 were used in this study. BATs™ were fabricated at a cell density of 2 million cells/ml collagen gel suspension (Vitrogen). Cells were incubated at 37° C. for 24 h before addition of 100 pM IL-1β and inhibitors. BAT™ images were recorded with a scanner and automated imaging software, ScanFlex™ (Flexcell International Corp.). Medium was refreshed every 24 h. On day 5, BATs™ were collected, total RNA extracted with an RNeasy mini kit (QIAGen), cDNA synthesized with SuperScriptII (Invitrogen) and quantitative PCR carried out using a quantitative PCR kit from Ambion. The PCR products were separated on 2% agarose gels and the bands were quantitated in Photoshop. The elasticity of BATs™ was tested on day 5. BATs™ were subjected to a maximum stretch (20% elongation, 1 Hz for 1 h) and the BAT images were recorded for 24 h after stretch.

β-actin [1] = assay: Cytoskeleton change by rhodamine-phalloidin staining; format: cell-based, human; details: 100 pM IL-1β
[2] = tested on: human tendon internal fibroblast (HTIF)-populated bioartificial tendons (BATs™); assay: Elasticity of BATs by length recovery after maximum stretch; format: cell-based; details: 100 pM IL-1β
Description: In order to find a better therapeutic method for tendon/ligament repair and/or replacement, several in vitro models for engineered tendon have been developed recently (Awad et al., J. Biomed. Mater Res., 51(2), 233-240, 2000). One of them is a BioArtificial Tendon (BAT™) model system utilizing tenocyte-populated molded collagen gels (Awad et al., J. Biomed. Mater Res., 51(2), 233-240, 2000). This 3D BAT™ system allows the testing of tenocyte responses to drugs, cytokines and mechanical loading but is too weak to replace conventional grafts materials. In an attempt to modulate the material properties of the cell-gel composite, the influence of IL-1β on the elasticity of human tendon internal fibroblast (HTIF)-populated bioartificial tendons (BATs™) was investigated. IL-1β has been reported to increase the expression of matrix metalloproteinases (MMPs) and elastin. It was hypothesized that IL-1β might increase the elasticity of BATs™ by up-regulating the expression of elastin and down-regulating matrix protein (Collagen I) expression. Gene expression was quantified with quantitative RT-PCR. The elasticity of BATs™ was determined by length recovery after stretch. The influence of IL-1β on the actin cytoskeleton and integrin attachment to matrix in BATs™ was tested +/− cytochalasin D or GRGDTP, respectively.
as §1, with “BATs™ were fabricated at a cell density of 2 million cells/ml collagen gel suspension (Vitrogen). Cells were incubated at 37° C. for 24 h before addition of 100 pM IL-1β and inhibitors.” left out, “Medium was refreshed every 24 h.” left out, “The elasticity of BATs™ was tested on day 5.” left out

[3] = tested on: human tendon internal fibroblast (HTIF) populated bioartificial tendons (BATs™); assay: Material properties (modulus) of BATs; format: cell-based; details: IL-1β treated BATs
[4] = tested on: human tendon internal fibroblasts (HTIFs); assay: Young's modulus of HTIFs by micropipette aspiration; format: cell-based; details: 100 pM IL-1β, day 5
Experimental: (§2) Primary HTIFs were isolated after surgery from discarded human tendon tissue as described previously (Banes et al., J. Ortho Res., 6, 73-82, 1988). HTIFs from passage 2 to 4 were used in this study. HTIFs were allowed to attach and spread for 24 h before addition of 100 pM IL-1β. Medium was refreshed every 24 h. On day 5, cells were collected for cell modulus measurement and gene expression analysis. Young's modulus of HTIFs was measured by aspirating a cell into the bore of a calibrated micropipette with a calibrated vacuum source. The cell-aspiration process was videotaped for subsequent data analysis to calculate the pipette bore size, the steady state pressure required to aspirate a segment of a cell into the pipette bore and the time constant for aspiration. Cytoskeleton change was monitored by rhodamine-phalloidin staining. The expression levels of β-actin was determined by quantitative RT-PCR. Total RNA was extracted with an RNeasy mini kit (QIAGen), cDNA was synthesized with SuperScriptII (Invitrogen) and quantitative PCR was carried out using 18S rRNA as an internal control (Ambion). The PCR products were separated on 2% agarose gels and pixel intensity of the bands was quantitated in Photoshop.

β-actin [5] = assay: β-actin expression by quantitative RT-PCR; format: cell-based, human; details: 100 pM IL-1β; for reduction of β-actin message: 24 h post addition
Experimental: as §2, with “On day 5, cells were collected for cell modulus measurement and gene expression analysis.” left out

[6] = tested on: human tendon internal fibroblast (HTIF)-populated bioartificial tendons (BATs™); assay: Contraction of HTIF-populated BATs (scanner imaging); format: cell-based; details: 100 pM IL-1β; 24 h post addition
Experimental: as §1

Collagen I = assay: Gene expression in BATs by quantitative RT-PCR; format: cell-based, human; details: 100 pM IL-1β, day 5
Experimental: as §1

MMPs 1, 2, 3 = assay: Gene expression in BATs by quantitative RT-PCR; format: cell-based, human; details: 100 pM IL-1β, day 5
Experimental: as §1

Nc1ncnc2c1ncn2[C@@H]1O[C@H](COP(=O)(O)OP(=O)(O)OP(=O)(O)O)[C@@H](O)[C@H]1O [ATP, adenosine triphosphate]
gel matrix contraction (gel matrix): retard gel matrix contraction

C=C1[C@@H](C)[C@H]2[C@H](Cc3ccccc3)NC(=O)[C@]23[C@H](OC(C)=O)/C=C/[C@@](C)(O)C(=O)[C@@H](C)C/C=C/[C@H]3[C@@H]1O [cytochalasin D]
cell modulus (cell modulus): decreased cell modulus by up to three fold

GRGDTP
stimulation of elastin mRNA by IL-1β (elastin; 100 μg/ml GRGDTP with 100 pM IL-1β): reduced its stimulation by IL-1β
elastin mRNA level (elastin; 100 μg/ml GRGDTP, without IL-1β): did not affect

interleukin-1beta [IL-1β]
cells with disrupted cytoskeletal structure (β-actin [1]; 2D cultures): about 20%
protein level of β-actin (β-actin [1]; 2D cultures, day 5): mostly recovered
fluorescence intensity of rhodamine-phalloidin staining compared to control (β-actin [1]; 3D bioartificial tendons, day 5): much lower
increase of intercellular space at the perpendicular direction of BATs (β-actin [1]; BATs, days 1 and 3): more than 100%
protein level of β-actin (β-actin [1]; rhodamine-phalloidin staining): down regulated
survival of maximum stretch ([2]; 20% elongation, 1 Hz for 1 h, day 5): survived the maximum stretch
time for elongated BATs to recover to original length post stretch ([2]; after maximum stretch (20% elongation, 1 Hz, 1 h)): 8 h
elasticity of BATs ([2]; tested on day 5): increased the elasticity
modulus of BATs [3]: reduced the modulus
reduction of cell modulus ([4]; HTIFs from patient one): 62%
reduction of cell modulus ([4]; HTIFs from patient two): 45%
reduction of β-actin message (β-actin [5]; 2D cultures): more than 50%
reduction of β-actin message (β-actin [5]; 3D cultures (BATs)): more than 50%
message level of β-actin (β-actin [5]; 3D cultures, day 3): returned to normal
contraction of BATs [6]: reduced the contraction
expression of Collagen I (Collagen I): down-regulated
expression of MMPs 1, 2, 3 (MMPs 1, 2, 3): up-regulated
expression of elastin (elastin; 100 pM IL-1β, BATs, day 5): up-regulated
